Measurements from patent US10059674B2, “Design, synthesis, and biological evaluation of 1-methyl-1, 4-dihyrdoindeno[1,2-C]pyrazole analogues as potential anticaner agents targeting tubulin colchicine binding site” (ACT PHARMA CO., LTD., priority 2016, dated 2018).
Like-named read-outs stand apart in the source and are kept apart here.

Tests used:
[1] = system: human breast adenocarcinoma (MCF-7) cells; test: Anti-proliferation test (MTT colorimetry); format: cell-based; conditions: MCF7, MCF-7, 72 h
Description: (§1) The compound of formula 1 (prepared in embodiment 1), and the compound of formula 2 (prepared in embodiment 2) are given at different concentrations to human hepatocellular carcinoma (HepG2) cells, human prostate carcinoma (PC3) cells, human cervical carcinoma (HeLa) cells, human breast adenocarcinoma (MCF-7) cells, and human leukemia (K562) cells; all the groups are incubated 72 h in an incubator containing 5% of CO2 at 37° C., and then inhabitation ratios of the compounds to the tumor cells are measured by using methyl thiazolyl tetrazolium (MTT) colorimetry, and results are shown in table 1.

[2] = system: human cervical carcinoma (HeLa) cells; test: Anti-proliferation test (MTT colorimetry); format: cell-based; conditions: 72 h
Description: as §1

[3] = system: human hepatocellular carcinoma (HepG2) cells; test: Anti-proliferation test (MTT colorimetry); format: cell-based; conditions: HepG2, 72 h
Description: as §1

[4] = system: human leukemia (K562) cells; test: Anti-proliferation test (MTT colorimetry); format: cell-based; conditions: K562, 72 h
Description: as §1

[5] = system: human prostate carcinoma (PC3) cells; test: Anti-proliferation test (MTT colorimetry); format: cell-based; conditions: PC-3, PC3, 72 h
Description: as §1

[6] = system: tubulin; test: Tubulin polymerization experiment (Cytoskeleton Tubulin Polymerization Assay Kit); format: biochemical
Description: The tubulin polymerization experiment is carried out according to the specifications of Tubulin Polymerization Assay Kit of Cytoskeleton Corporation.

[7] = in vitro; conditions: human, microsomes, pH 7.47
[8] = in vitro; conditions: mouse, liver microsomes, pH 7.47
[9] = in vitro; conditions: rat, microsomes, pH 7.47
[10] = in vitro; conditions: dog, microsomes, pH 7.47
[11] = in vitro; conditions: monkey, microsomes, pH 7.47
[12] = MDCK cell permeability test; conditions: dog, MDCK, 90 min; for Papp A→B at 90 min: Apparent permeability coefficient A→B; for Papp B→A at 90 min: Apparent permeability coefficient B→A
[13] = system: MDCK cells; test: MDCK cell permeability test
[14] = system: P-gp; test: MDCK cell permeability test; conditions: dog, MDCK
[15] = Liver microsomal metabolism stability test; conditions: mouse
[16] = system: MDCK cells
[17] = Liver microsomal metabolism stability test; conditions: rat, microsomes, pH 7.47
[18] = 1st line of the compound (condition not given)
[19] = 2nd line of the compound (condition not given)
[20] = Recovery rate A→B, 2nd line of the compound (condition not given)
[21] = Recovery rate A→B, 1st line of the compound (condition not given; method: without / with 10 μM cyclosporine A)
[22] = Recovery rate B→A, 1st line of the compound (condition not given)
[23] = Recovery rate B→A, 2nd line of the compound (condition not given)

CCOc1cccc(Nc2nn(C)c3c2Cc2cc(OCC)c(OCC(=O)NO)cc2-3)c1 [LL-02]
IC50 [1]: 0.00336 µM | IC50 [2]: 0.0132 µM | IC50 [3]: 0.0164 µM | IC50 [4]: 0.00833 µM | IC50 [5]: 0.0235 µM | inhibition of tubulin polymerization (in words) ([6]; FIGS. 1 and 2): able to inhibit tubulin polymerization | IC50 ([6]; read-out: tubulin polymerization inhibiting IC50): 5.33 µM | half-life at 1 µM [7]: 12.9 min | microsomal CLint at 1 µM [7]: 108 µL/min/mg | half-life at 1 µM [8]: 17.8 min | microsomal CLint at 1 µM [8]: 78 µL/min/mg | half-life at 1 µM [9]: 24 min | microsomal CLint at 1 µM [9]: 57.7 µL/min/mg | half-life at 1 µM [10]: 7.5 min | microsomal CLint at 1 µM [10]: 185 µL/min/mg | half-life at 1 µM [11]: 1.3 min | microsomal CLint at 1 µM [11]: 1070 µL/min/mg | Papp A→B at 90 min [12, 18]: 74 nm/s | Papp A→B at 90 min [12, 19]: 124 nm/s | Papp B→A at 90 min [12, 18]: 326 nm/s | Papp B→A at 90 min [12, 19]: 69 nm/s | recovery at 90 min [12, 20]: 59.2% | recovery at 90 min [12, 21]: 89.4% | recovery at 90 min [12, 22]: 91.3% | recovery at 90 min [12, 23]: 79.4% | PGP substrate judgment ([13]; MDCK cells): is the PGP substrate and Yes | Permeability Judgment ([13]; MDCK cells): moderate permeability | Efllux ratio ([13]; Papp(B→A)/Papp(A→B), 2nd line of the compound (condition not given)): 0.6 | efflux ratio at 90 min [14]: 4.4 | metabolism in the liver microsomes (in words) [15]: faster

CC(C)CN(C[C@@H](O)[C@H](Cc1ccccc1)NC(=O)O[C@H]1CCOC1)S(=O)(=O)c1ccc(N)cc1 [Amprenavir, amprenavir, reference compound]
PGP substrate judgment [16]: Yes | recovery at 90 min [12, 20]: 95.4% | recovery at 90 min [12, 21]: 106% | recovery at 90 min [12, 22]: 102% | recovery at 90 min [12, 23]: 100%

COc1ccc2[nH]c([S+]([O-])Cc3ncc(C)c(OC)c3C)nc2c1 (stereo not shown) [omeprazole, reference compound]
microsomal CLint at 1 µM [9]: 88.3 µL/min/mg | half-life at 1 µM [17]: 15.7 min
